In patent US11365227B2, “Peptide and pharmaceutical compositions of same for use as an antimicrobial and in cancer treatment” (UNIVERSITAT DE VALÈNCIA, priority 2017, dated 2022):
Where a SMILES comes first, the peptide text is derived from it.

Columns and labels:
[1] = Cell viability MTS assay, cytotoxic effect; type: cell-based; settings: mouse, HC-11 normal mammary epithelial cells, approximately 200 μM (700 μg/mL), 0.5% bovine foetal serum
Experimental: Cell viability was determined by the MTS method. The MDA-MB-231 cells cultured in plates with 96 wells at 37° C. in an atmosphere humidified with 10% CO2 to a density of 5×10^3 cells/well were incubated with different concentrations of the peptide PaSK for 24 h. Then 20 μL were added of the solution MTS/PMS (3-(4,5-dimethylthiazol-2-yl)-5-(3-carboxymethoxyfenyl)-2-(4-sulphophenyl)-2H-tetrazole/phenazine methosulphate) to each well and after incubating for 2 h in the dark the absorbance at 490 nm was read in a plate reader. The percentage reduction in number of cells was calculated according to the formula (1−E/C)×100, where E is the absorbance of the cells treated with the peptide and C is the absorbance of the samples of the control cells.
The cytotoxic effect of the peptide PaSK has been studied in two cell lines of triple-negative breast cancer cells, one human (MDA-MB-231) and one mouse (4T1), and a line of normal mouse mammary epithelial cells (HC-11). To this end, a cell viability MTS assay was performed, based on the use of a compound derived from tetrazolium that is reduced in live cells to form a soluble coloured product. […]

[2] = system: S. aureus; experiment: Antimicrobial activity by flow cytometry (SYBR Green / propidium iodide); type: cell-based, Staphylococcus aureus subsp. aureus CECT 4013
Experimental: The strain used was CECT 4013 of S. aureus subsp. aureus, publicly accessible deposited in the Spanish Type Culture Collection (CECT).
Starting from cells of S. aureus cultured overnight in a liquid medium LB (peptone 1%, yeast extract 0.5% and NaCl 1%) at 37° C. with stirring, aliquots were obtained in a new liquid medium and allowed to grow until reaching an optical density at 600 nm (OD600) of 0.5, optimum for detection in the flow cytometer. Aliquots were prepared with a concentration of 5×10^6 cfu/100 μL of S. aureus to which were added 10, 15, 20 and 25 μg/mL of PaSK, 25 μg/mL of TcDef3-pep and H2O (negative control), solvent used to dilute the peptides. The mixtures were incubated at 37° C. for 8 h and marked with the fluorochromes SYBR Green (Invitrogen) (25 μL of a SYBR Green 25× solution in H2O) that stains all the cells and propidium iodide (Sigma) (10 μL of propidium iodide 1 mg/mL) that stains dead cells. Finally, the cell death caused by the peptides was analysed by flow cytometry with the equipment BD Facs Verse (Becton Dickinson), from the cell culture and flow cytometry section of the Central Services for Research Support of the University of Valencia. The experiments were performed in duplicate.
The flow cytometer forces cells to pass one by one through a needle, creating a thin line of liquid and detecting how the laser beam (argon emission laser at 488 nm, in the equipment used) interacts with the cells, depending on how the incident light is deviated and the fluorescence emitted by the excited fluorochromes. The results are presented as graphs obtained with the analysis program BD Facs suite v1.0.5.3841 (Becton Dickinson). […] Then, a second graph is obtained with the parameters SSC and FITC (fluorescence parameter indicating the cells containing SYBR Green), to differentiate the cells from the other particles that may be present in the sample. Lastly, a third graph is obtained with the fluorescence parameters FITC and PerCPCy5.5 (indicating the cells stained with propidium iodide) to differentiate the cells that have been stained only by SYBR Green from those stained with propidium iodide, which will be those that have died.
The antimicrobial activity of the peptide PaSK was determined by flow cytometry. […] Therefore, the use of these two fluorochromes provides a method for determining viable cells, quantifying the loss of cell viability from the increase in propidium iodide inside the dead cells.
After incubating the cells of strain CECT 4013 of S. aureus with 25 μg/mL of the peptides TcDef3-pep and PaSK, the percentage of dead cells was determined. […] FIGS. 1A-1D show the graphs corresponding to the fluorescence obtained in the windows of the flow cytometer.

Compound: CC[C@H](C)[C@H](NC(=O)[C@H](CCCNC(=N)N)NC(=O)[C@H](CCCNC(=N)N)NC(=O)[C@H](CCCCN)NC(=O)[C@H](CC(N)=O)NC(=O)[C@H](CS)NC(=O)[C@H](Cc1ccc(O)cc1)NC(=O)CNC(=O)CNC(=O)[C@H](CCCNC(=N)N)NC(=O)[C@H](CCCCN)NC(=O)[C@H](CCCNC(=N)N)NC(=O)[C@H](CCCCN)NC(=O)[C@H](CC(C)C)NC(=O)[C@H](CC(C)C)NC(=O)[C@H](CS)NC(=O)[C@H](Cc1c[nH]cn1)NC(=O)[C@H](C)NC(=O)[C@H](C)NC(=O)[C@H](CS)NC(=O)[C@H](C)NC(=O)[C@H](C)NC(=O)[C@H](Cc1c[nH]cn1)NC(=O)[C@H](CC(N)=O)NC(=O)[C@@H](NC(=O)[C@@H](N)CCCCN)C(C)C)C(=O)N[C@@H](CS)C(=O)N[C@H](C(=O)N[C@@H](CS)C(=O)N[C@@H](CCCNC(=N)N)C(=O)N[C@@H](CC(N)=O)C(=O)O)C(C)C [PaSK] (H-KVNHAACAAHCLLKRKRGGYCNKRRICVCRN-OH; N-terminus and C-terminus assumed)
- mortality at 24 h, 200 μM [1]: ~50%
- percentage of cell death (cytotoxicity) ([2]; 10 μg/mL, same conditions): ~100%
- percentage of dead cells (cytotoxicity) ([2]; 25 μg/mL, 8 h at 37° C., 2 replicates): ~100%
